Reference: patent US8815908B2, “Compounds and methods for inhibiting phosphate transport” (Ardelyx, Inc., priority 2010, dated 2014)

Assays:
[1] = molecular target: T1, rat NaP2b (SLC34A2) (Rattus norvegicus, UniProt Q9JJ09); experiment: Inhibition of NaP2b-mediated Pi uptake into transfected HEK293 cells (rat); format: cell-based; settings: 33P Pi uptake, 100 uM KH2PO4, read-out: pIC50 range for rat Nap2b (converted)
T1 construct: host or cells: HEK293
T1 sequence (Q9JJ09 1-695): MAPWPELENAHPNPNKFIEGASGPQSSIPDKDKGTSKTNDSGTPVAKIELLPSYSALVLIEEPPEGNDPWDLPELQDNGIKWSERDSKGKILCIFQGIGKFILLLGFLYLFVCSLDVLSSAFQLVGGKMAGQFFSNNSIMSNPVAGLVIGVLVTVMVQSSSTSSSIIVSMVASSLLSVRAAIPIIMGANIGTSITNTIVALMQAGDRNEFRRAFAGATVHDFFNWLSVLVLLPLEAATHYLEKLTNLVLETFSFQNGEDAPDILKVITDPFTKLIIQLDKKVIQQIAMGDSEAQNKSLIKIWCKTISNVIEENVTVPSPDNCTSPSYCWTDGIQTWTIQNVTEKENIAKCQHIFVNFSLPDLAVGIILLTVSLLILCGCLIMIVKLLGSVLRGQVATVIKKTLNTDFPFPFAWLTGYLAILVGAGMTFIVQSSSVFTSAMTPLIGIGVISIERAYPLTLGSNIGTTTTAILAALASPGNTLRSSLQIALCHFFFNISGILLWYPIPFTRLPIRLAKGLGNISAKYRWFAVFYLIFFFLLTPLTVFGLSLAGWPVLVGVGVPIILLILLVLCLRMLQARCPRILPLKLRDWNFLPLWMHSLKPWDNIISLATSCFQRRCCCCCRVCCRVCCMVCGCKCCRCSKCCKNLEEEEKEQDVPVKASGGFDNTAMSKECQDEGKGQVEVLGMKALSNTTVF
Description: (§1) HEK293 cells were obtained from the American Type Culture collection and propagated per their instructions. Expression clones for rat and human NaP2b (SLC34A2) were obtained from Open Biosystems (Catalog numbers MRN1768-9510282, and MHS1010-99823026, respectively). The sequence of the human protein was mutated to insert a threonine after residue 37, and to introduce a N39D mutation.
(§2) The rate of phosphate (Pi) uptake into HEK293 cells was measured using a modification of the method described by Mohrmann et al. (Mohrmann, I., Mohrmann, M., Biber, J., and Murer, H. (1986) Am. J. Phys. 250(3 Pt 1):G323-30.) Transfected HEK293 cells were treated with a pharmacological agent to minimize endogenous PiT-mediated phosphate transport activity, such that the only remaining sodium-dependent phosphate transport activity is that which was bestowed by introduction of the NaP2b genes.
Cells were seeded into 96-well plates at 25,000 cells/well and cultured overnight. Lipofectamine 2000 (Invitrogen) was used to introduce the NaP2b cDNA, and the cells were allowed to approach confluence during a second overnight incubation. […] Cells were then overlayed with either choline uptake buffer or sodium uptake buffer (14 mM Tris, 137 mM sodium chloride, 5.4 mM KCl, 2.8 mM CaCl2, 1.2 mM MgSO4, 100 uM KH2PO4, PiT-silencing agent, 1 mg/mL Bovine Serum Albumin, pH 7.4) containing 6-9 uCi/mL ^33P orthophosphoric acid (Perkin Elmer) and test compound. Each compound was tested at twelve concentrations ranging from 0.1 nM to 30 uM. Assays were run in duplicate.
(§3) After incubation for 3-30 minutes at room temperature, assay mixtures were removed, and the cells were washed twice with ice cold stop solution (137 mM sodium chloride, 14 mM Tris, pH 7.4). Cells were lysed by addition of 20 μL 0.1% Tween 80 followed by 100 μL scintillation fluid, and counted using a TopCount (Perkin Elmer).
(§4) pIC50 (the negative log of the IC50) values of the test compounds were calculated using GraphPad Prism.

[2] = Fecal recovery of orally administered compounds; format: in vivo, Sprague-Dawley rats; settings: rat, oral gavage, feces collected until 48 hr after dosing; same animals as Example 6
Description: The animals were kept in metabolic cages and feces were collected from the time of dosing until 48 hr after dosing. Upon collection, feces was dried by lyophilization and ground to a visually homogenous powder. Duplicate samples of ground feces from each individual animal were weighed out and extracted using organic solvent. Extracted samples were then diluted into mobile phase and test compound levels were quantitatively determined by LC-MS/MS analysis as described in Example 6 except that the standard curve was prepared in a feces matrix.

[3] = Determination of compound Cmax and AUC after oral gavage; format: in vivo, Sprague-Dawley rats; settings: Sprague-Dawley, rat plasma; for AUC: blood at 0.5-4 h
Description: Blood samples were processed to plasma using K2EDTA as an anticoaglulant. Plasma samples were treated with acetonitrile containing an internal standard, precipitated proteins removed by centrifugation. Supernatants were analyzed by LC-MS/MS and compound concentrations were determined by interpolated from a standard curve prepared in plasma. All compounds were orally dosed at the dosage shown, and pharmacokinetic parameters determined.

[4] = molecular target: T2, human NaP2b (SLC34A2) (Homo sapiens, UniProt O95436); experiment: Inhibition of NaP2b-mediated Pi uptake into transfected HEK293 cells (human); format: cell-based; settings: 33P Pi uptake, 100 uM KH2PO4, human protein with Thr inserted after residue 37 and N39D, read-out: pIC50 range for human (converted)
T2 construct: host or cells: HEK293
T2 sequence (O95436 1-690): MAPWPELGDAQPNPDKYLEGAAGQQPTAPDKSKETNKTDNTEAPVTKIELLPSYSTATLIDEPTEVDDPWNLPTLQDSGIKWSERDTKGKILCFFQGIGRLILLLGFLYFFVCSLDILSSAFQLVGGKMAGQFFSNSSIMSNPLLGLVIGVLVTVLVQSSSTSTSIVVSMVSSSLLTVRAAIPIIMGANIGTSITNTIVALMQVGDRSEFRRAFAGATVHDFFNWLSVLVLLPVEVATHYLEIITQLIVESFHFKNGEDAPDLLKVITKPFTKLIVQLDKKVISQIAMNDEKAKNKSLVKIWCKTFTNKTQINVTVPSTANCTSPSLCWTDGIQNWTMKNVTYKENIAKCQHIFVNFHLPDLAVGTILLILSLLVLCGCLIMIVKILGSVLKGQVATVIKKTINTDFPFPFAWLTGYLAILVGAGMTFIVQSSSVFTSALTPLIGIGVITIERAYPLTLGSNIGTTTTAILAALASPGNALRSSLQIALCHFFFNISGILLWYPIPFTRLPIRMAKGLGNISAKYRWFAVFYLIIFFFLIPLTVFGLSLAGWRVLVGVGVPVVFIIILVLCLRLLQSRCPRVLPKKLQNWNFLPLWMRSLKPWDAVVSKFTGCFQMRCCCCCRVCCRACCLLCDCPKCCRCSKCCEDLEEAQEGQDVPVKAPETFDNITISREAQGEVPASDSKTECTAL
Description: as §1, §2
Cells were seeded into 96-well plates at 25,000 cells/well and cultured overnight. […]
as §3, §4

[5] = test system: NaPi2b; experiment: Competition with phosphate: Pi uptake assay repeated at 2.1 vs 0.1 mM phosphate; format: cell-based; settings: potency at 2.1 vs 0.1 mM phosphate
Description: To ascertain if an inhibitor was competitive for binding with phosphate, the procedure was repeated, but raising the concentration of the substrate in the assay mixture from 0.1 to 2.1 mM phosphate.

[6] = test system: uptake of phosphorus from the intestine; experiment: In vivo evaluation, co-dosing in chow: inhibition of uptake of phosphorus from the intestine; set-up: species or system Sprague-Dawley rats; settings: rat, compound in chow, mean drug dose 115 mg/kg/day, versus control group
Excerpt: Male, 7-week-old Sprague-Dawley rats (Charles-River laboratories international, Hollister, Calif.) were allowed to acclimate for a minimum of 3 days. The experiment was initiated by switching animals to a synthetic diet (0.6% phosphorus and 0.6% calcium, Harlan Teklad TD.84122) for four days. After this time, the animals were placed into metabolic cages for daily monitoring of food and water consumption, as well as urine and fecal collections. Test compounds were incorporated into the powdered diet listed above containing 3% chocolate flavoring (w/w, BioServ #7345) at 1.3 mg test compound per gram of diet to achieve an average daily nominal dose of 100 mg/kg/day. The actual dose received by each animal was later determined by measuring prepared diet consumption and body weight. Urine samples were collected in three daily periods from 24-48, 48-72, and 72-96 hours of drug dosing. […] Phosphorus levels in the urine were determined by anion exchange chromatography using a Dionex ICS-3000 ion chromatography system. […] Elution of urine phosphate ions was monitored via conductivity detector and reported as ppm relative to a standard ion solution containing phosphate. Daily urinary P output relative to the P consumed in the prepared diet for each animal was calculated. […] The differences between the means of control and treated groups were evaluated by t tests.

IC50 [1]	Cmax ([3]; actual oral dose 7.5 mg/kg, LLOQ 10 ng/mL)	AUC ([3]; actual oral dose 7.5 mg/kg)	SMILES	% recovered in feces [2]	IC50 [4]	Competitive with respect to Pi? [5]	Cmax ([3]; actual oral dose 11 mg/kg, LLOQ 0.5 ng/mL)	AUC ([3]; actual oral dose 11 mg/kg)	Mean % inhibition Urine Pout/P consumed [6]
2000 to 25100 nM			COCCNC(=O)c1cccc(SCc2cccc(C(=O)Nc3ccc(N4CCCCC4)cc3C(=O)c3cc4ccc(C(F)(F)F)cc4[nH]3)c2)c1 [Example 3, N-(2-Methoxyethyl)-3-(3-(4-(piperidin-1-yl)-2-(6-(trifluoromethyl)-1H-indole-2-carbonyl)phenylcarbamoyl)benzylthio)benzamide]						
1000 to 7940 nM	299 ng/mL	433 ng·h/mL	O=C(O)CCSCc1cccc(C(=O)Nc2ccc(N3CCCCC3)cc2C(=O)c2cc3ccc(C(F)(F)F)cc3[nH]2)c1 [Example 1, 3-(3-((4-(Piperidin-1-yl)-2-(6-(trifluoromethyl)-1H-indole-2-carbonyl)phenyl)carbamoyl)benzylthio)propanoic acid]	34%	1000 to 7940 nM				

SMILES	IC50 [1]	Cmax ([3]; actual oral dose 7.5 mg/kg, LLOQ 10 ng/mL)	AUC ([3]; actual oral dose 7.5 mg/kg)	% recovered in feces [2]	IC50 [4]	Competitive with respect to Pi? [5]	Cmax ([3]; actual oral dose 11 mg/kg, LLOQ 0.5 ng/mL)	AUC ([3]; actual oral dose 11 mg/kg)	Mean % inhibition Urine Pout/P consumed [6]
CN(CCN1CCOCC1)C(=O)c1cccc(C(=O)Nc2ccc(N3CCCCC3)cc2C(=O)c2cc3ccc(C(F)(F)F)cc3[nH]2)c1 [Example 2, N1-Methyl-N1-(2-morpholinoethyl)-N3-(4-(piperidin-1-yl)-2-(6-(trifluoromethyl)-1H-indole-2-carbonyl)phenyl)isophthalamide 2,2,2-trifluoroacetate]	< 1000 nM			2.9%	< 1000 nM	No	91 ng/mL	< 97 ng·h/mL	20%
